Data reported in US20040220239A1, “Inhibitors of serine protease activity methods and compositions for treatment of nitric oxide-induced clinical conditions” (priority 2003, published 2004).
Entries after “also recorded” stand apart in the source; their conditions may differ.

Experiments:
Format in all cases: cell-based
RAW 264.7 macrophages = experiment: NO release induced by LPS and γ-IFN in macrophagic cells (nitrite, Greiss reagent); conditions: induction with γ-IFN and LPS, FIG. 1, FIG. 4
Method: RAW 264.5 macrophages are selected for measuring the effect of α1-antitrypsin on NO release. RAW 264.7 cell monolayers are pretreated for 1 hour with α1-antitrypsin (0.1-3 mg/ml), followed by costimulation by interferon-γ(10 U/ml), and LPS (1 ng/ml) for 18 hours. Aliquots (100 μl) of supernatant are combined with equal volumes of Greiss reagent and incubated at room temperature for 10 minutes. The colorimetric determination of nitrite concentration is measured by absorbance at 550 nm and quantified with a standard curve. The combination of LPS and interferon-γ is a potent stimulus for NO release in […] macrophages. The effect of α1-antitrypsin at 3 mg/ml on NO expression is measured.

NF-κB = experiment: Electrophoretic mobility shift assay of NF-κB induced by interleukin-18; conditions: induced by incubation with IL-18, EMSA; FIG. 3
iNOS protein = experiment: Induction of iNOS protein by LPS and γ-interferon, Western blot; conditions: macrophagic cells, γ-IFN and LPS, FIG. 2
Method: RAW 264.7 macrophage monolayers are treated for 1 hour with α1-antitrypsin (3 mg/ml), followed by costimulation by interferon-γ (10 U/ml), and LPS (1 ng/ml) for 18 hours. The cells are lysed by exposure to lysis solution (50 mm Tris-HCl, pH 8.0, 137 mm NaCl, 10% (v/v) glycerol, 1% (v/v), Nonidet P-40, 1 mM NaF, 10 μg/ml leupeptin, […] aprotinin, 2 mM sodium vanadate, and 1 mM phenylmethylsulfonyl fluoride). Samples containing equivalent amounts of total protein are subjected to SDS-polyacrylamide gel electrophoresis. Western blots of the gels are prepared, non-specific sites blocked by incubation overnight with 5% non-fat dry milk, and iNOS detected by incubation with iNOS anti-serum (Alexis Corporation, 1:1000 in 5% (w/v) bovine serum albumin in a solution of 20 mm Tris-HCl, pH 7.6, 137 mM […], and 0.005% (v/v) Tween 20). Using horseradish peroxidase-conjugated second antibody, the antibody bound to iNOS is detected by enhanced chemiluminescence. The effect of the combination of interferon-γ, and LPS on induction of iNOS in the cell extract and the effect of pretreatment with α1-antitrypsin are measured.

cytomegalovirus (CMV) = experiment: Cytomegalovirus replication in infected RAW 264.5 macrophages; conditions: RAW 264.5 macrophages infected with CMV; FIG. 6
[1] = test system: p-ERK (p42/p44 MAP kinase); experiment: Western blot of p-ERK expression; conditions: FIG. 5
[2] = test system: herpes simplex virus (HSV); experiment: Herpes simplex virus replication; conditions: FIG. 7

## Cc1cccc(Cc2nnc(C(=O)C(NC(=O)[C@@H]3CCCN3C(=O)[C@@H](NC(=O)OCc3ccccc3)C(C)C)C(C)C)o2)c1 (stereo partly drawn) [CE-2072, benzyloxycarbonyl-L-valyl-N-[1-(2-[5-(3-methylbenzyl)-1,3,4-oxadiazolyl]carbonyl)-2-(S)-methylpropyl]-L-prolinamide, reference compound]
RAW 264.7 macrophages
  effect on NO levels (measured as NO2-) induced by γ-IFN and LPS: inhibits NO levels
NF-κB
  effect on induction of active NF-κB: inhibit the induction of active NF-κB

## α1-antitrypsin
iNOS protein
  effect on induction of iNOS protein: inhibits induction of iNOS protein
RAW 264.7 macrophages
  effect on NO levels (measured as NO2-) induced by γ-IFN and LPS: efficiently block γ-IFN- and LPS-induced NO synthesis; also recorded: inhibits NO levels
Cytomegalovirus (CMV)
  effect on CMV replication: blocks CMV replication
[1]
  effect on level and/or phosphorylation of p-ERK: inhibits the level and/or phosphorylation of p-ERK
[2]
  effect on replication of HSV: inhibits replication of HSV
NF-κB
  effect on induction of active NF-κB: inhibit the induction of active NF-κB
